The test deals with T1, human PAH with the R408W mutation (Homo sapiens, UniProt P00439, R408W).
T1 construct: expressed in transfected cells
T1 sequence (P00439 1-452 R408W): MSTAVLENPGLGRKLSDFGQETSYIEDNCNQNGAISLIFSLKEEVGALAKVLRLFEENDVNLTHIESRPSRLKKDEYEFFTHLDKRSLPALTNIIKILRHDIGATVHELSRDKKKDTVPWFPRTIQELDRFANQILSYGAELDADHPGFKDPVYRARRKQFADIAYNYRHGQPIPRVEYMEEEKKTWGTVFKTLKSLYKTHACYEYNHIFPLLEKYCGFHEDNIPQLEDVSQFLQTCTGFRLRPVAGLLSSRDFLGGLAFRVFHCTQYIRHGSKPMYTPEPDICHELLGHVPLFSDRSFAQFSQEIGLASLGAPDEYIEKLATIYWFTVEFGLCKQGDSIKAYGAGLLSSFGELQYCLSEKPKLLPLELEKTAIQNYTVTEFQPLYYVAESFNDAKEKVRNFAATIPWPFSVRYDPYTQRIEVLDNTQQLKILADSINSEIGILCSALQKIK
The test is described as follows: Cell Based Phenylalanine Flux Assay.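 Note: after compound treatment, cells received sepiapterin plus isotope-labelled Phenylalanine for 4 hours, then labelled Tyrosine in the medium was quantified, 10-point 2-fold dilution series run in duplicate.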 The conditions noted are these: A375 cells expressing human R408W PAH; 24 hrs compound incubation; 13C-Tyrosine by LC-MS; average where tested multiple times; read-out: AC50.

Molecules are shown by their SMILES.

With `CC(C)(C)c1nnc(C(=O)N2CCc3[nH]cnc3[C@@H]2c2cc3c(F)cccn3n2)o1` [Example 1026, (R)-(5-(tert-butyl)-1,3,4-oxadiazol-2-yl)(4-(4-fluoropyrazolo[1,5-a]pyridin-2-yl)-6,7-dihydro-1H-imidazo[4,5-c]pyridin-5(4H)-yl)methanone], the AC50 fell in the range of 1 to 5 µM.
The value for `CC(C)(C)c1nnc(C(=O)N2CCc3[nH]cnc3[C@H]2c2cc3c(F)cccn3n2)o1` [Example 1027, (S)-(5-(tert-butyl)-1,3,4-oxadiazol-2-yl)(4-(4-fluoropyrazolo[1,5-a]pyridin-2-yl)-6,7-dihydro-1H-imidazo[4,5-c]pyridin-5(4H)-yl)methanone] was < 0.5 µM; that for `O=C(c1nnc(-c2ccccn2)o1)N1CCc2[nH]cnc2[C@H]1c1cc2cccc(C(F)(F)F)n2n1` [Example 1028, (S)-(5-(pyridin-2-yl)-1,3,4-oxadiazol-2-yl)(4-(7-(trifluoromethyl)pyrazolo[1,5-a]pyridin-2-yl)-6,7-dihydro-1H-imidazo[4,5-c]pyridin-5(4H)-yl)methanone] was < 0.5 µM; that for `O=C(c1nnc(-c2ccccn2)o1)N1CCc2[nH]cnc2[C@@H]1c1cc2cccc(C(F)(F)F)n2n1` [Example 1029, (R)-(5-(pyridin-2-yl)-1,3,4-oxadiazol-2-yl)(4-(7-(trifluoromethyl)pyrazolo[1,5-a]pyridin-2-yl)-6,7-dihydro-1H-imidazo[4,5-c]pyridin-5(4H)-yl)methanone] was 1 to 5 µM.
The value for `Cn1ccc(-c2nnc(C(=O)N3CCc4[nH]cnc4[C@H]3c3cc4cccc(C(F)(F)F)n4n3)o2)n1` [Example 1030, (S)-(5-(1-methyl-1H-pyrazol-3-yl)-1,3,4-oxadiazol-2-yl)(4-(7-(trifluoromethyl)pyrazolo[1,5-a]pyridin-2-yl)-6,7-dihydro-1H-imidazo[4,5-c]pyridin-5(4H)-yl)methanone] was < 0.5 µM; that for `Cn1cnc(-c2nnc(C(=O)N3CCc4[nH]cnc4[C@H]3c3cc4cccc(C(F)(F)F)n4n3)o2)c1` [Example 1032, (S)-(5-(1-methyl-1H-imidazol-4-yl)-1,3,4-oxadiazol-2-yl)(4-(7-(trifluoromethyl)pyrazolo[1,5-a]pyridin-2-yl)-6,7-dihydro-1H-imidazo(4,5-c]pyridin-5(4H)-yl)methanone] was 0.5 to 1 µM.
The value for `Cn1cnc(-c2nnc(C(=O)N3CCc4[nH]cnc4[C@@H]3c3cc4cccc(C(F)(F)F)n4n3)o2)c1` [Example 1033, (R)-(5-(1-methyl-1H-imidazol-4-yl)-1,3,4-oxadiazol-2-yl)(4-(7-(trifluoromethyl)pyrazolo[1,5-a]pyridin-2-yl)-6,7-dihydro-1H-imidazo[4,5-c]pyridin-5(4H)-yl)methanone] was 1 to 5 µM; that for `O=C(c1nnc(-c2ncccc2F)o1)N1CCc2[nH]cnc2[C@H]1c1cc2cccc(C(F)(F)F)n2n1` [Example 1034, (S)-(5-(3-fluoropyridin-2-yl)-1,3,4-oxadiazol-2-yl)(4-(7-(trifluoromethyl)pyrazolo[1,5-a]pyridin-2-yl)-6,7-dihydro-1H-imidazo[4,5-c]pyridin-5(4H)-yl)methanone] was 0.5 to 1 µM; that for `O=C(c1nnc(-c2ncccc2F)o1)N1CCc2[nH]cnc2[C@@H]1c1cc2cccc(C(F)(F)F)n2n1` [Example 1035, (R)-(5-(3-fluoropyridin-2-yl)-1,3,4-oxadiazol-2-yl)(4-(7-(trifluoromethyl)pyrazolo[1,5-a]pyridin-2-yl)-6,7-dihydro-1H-imidazo[4,5-c]pyridin-5(4H)-yl)methanone] was > 5 µM.
Take `O=C(c1nnc(-c2ccn(C(F)F)n2)o1)N1CCc2[nH]cnc2[C@H]1c1cc2cccc(C(F)(F)F)n2n1` [Example 1036, (S)-(5-(1-(difluoromethyl)-1H-pyrazol-3-yl)-1,3,4-oxadiazol-2-yl)(4-(7-(trifluoromethyl)pyrazolo[1,5-a]pyridin-2-yl)-6,7-dihydro-1H-imidazo[4,5-c]pyridin-5(4H)-yl)methanone]: the AC50 lay within 0.5 to 1 µM.
The value for `O=C(c1nnc(-c2ccn(C(F)F)n2)o1)N1CCc2[nH]cnc2[C@@H]1c1cc2cccc(C(F)(F)F)n2n1` [Example 1037, (R)-(5-(1-(difluoromethyl)-1H-pyrazol-3-yl)-1,3,4-oxadiazol-2-yl)(4-(7-(trifluoromethyl)pyrazolo[1,5-a]pyridin-2-yl)-6,7-dihydro-1H-imidazo[4,5-c]pyridin-5(4H)-yl)methanone] was > 5 µM; that for `Cc1cccn2nc([C@@H]3c4nc[nH]c4CCN3C(=O)c3nnc(-c4cnn(C5CCC5)c4)o3)cc12` [Example 1038, (S)-(5-(1-cyclobutyl-1H-pyrazol-4-yl)-1,3,4-oxadiazol-2-yl)(4-(4-methylpyrazolo[1,5-a]pyridin-2-yl)-6,7-dihydro-1H-imidazo[4,5-c]pyridin-5(4H)-yl)methanone] was < 0.5 µM; that for `Cc1cccn2nc([C@H]3c4nc[nH]c4CCN3C(=O)c3nnc(-c4cnn(C5CCC5)c4)o3)cc12` [Example 1039, (R)-(5-(1-cyclobutyl-1H-pyrazol-4-yl)-1,3,4-oxadiazol-2-yl)(4-(4-methylpyrazolo[1,5-a]pyridin-2-yl)-6,7-dihydro-1H-imidazo[4,5-c]pyridin-5(4H)-yl)methanone] was > 5 µM.
Regarding `O=C(c1nnc(-c2cnn(C(F)F)c2)o1)N1CCc2[nH]cnc2[C@H]1c1cc2cccc(C(F)(F)F)n2n1` [Example 1040, (S)-(5-(1-(difluoromethyl)-1H-pyrazol-4-yl)-1,3,4-oxadiazol-2-yl)(4-(7-(trifluoromethyl)pyrazolo[1,5-a]pyridin-2-yl)-6,7-dihydro-1H-imidazo[4,5-c]pyridin-5(4H)-yl)methanone], the AC50 lay within 0.5 to 1 µM.
The value for `O=C(c1nnc(-c2cnn(C(F)F)c2)o1)N1CCc2[nH]cnc2[C@@H]1c1cc2cccc(C(F)(F)F)n2n1` [Example 1041, (R)-(5-(1-(difluoromethyl)-1H-pyrazol-4-yl)-1,3,4-oxadiazol-2-yl)(4-(7-(trifluoromethyl)pyrazolo[1,5-a]pyridin-2-yl)-6,7-dihydro-1H-imidazo[4,5-c]pyridin-5(4H)-yl)methanone] was > 5 µM.
Turning to `O=C(c1nnc(-c2ccccn2)o1)N1CCc2[nH]cnc2[C@H]1c1cc2cccc(Cl)n2n1` [Example 1042, (S)-(4-(7-chloropyrazolo[1,5-a]pyridin-2-yl)-6,7-dihydro-1H-imidazo[4,5-c]pyridin-5(4H)-yl)(5-(pyridin-2-yl)-1,3,4-oxadiazol-2-yl)methanone], the AC50 was < 0.5 µM.
With `Cn1ncnc1C(=O)N1CCc2[nH]cnc2[C@H]1c1cc2c(C(F)(F)F)cccn2n1` [Example 1044, (S)-(1-methyl-1H-1,2,4-triazol-5-yl)(4-(4-(trifluoromethyl)pyrazolo[1,5-a]pyridin-2-yl)-6,7-dihydro-1H-imidazo[4,5-c]pyridin-5(4H)-yl)methanone], the AC50 is < 0.5 µM.
The value for `CC(C)(C)c1nnc(C(=O)N2CCc3[nH]cnc3[C@@H]2c2cc3c(Cl)cccn3n2)o1` [Example 1046, (R)-(5-(tert-butyl)-1,3,4-oxadiazol-2-yl)(4-(4-chloropyrazolo[1,5-a]pyridin-2-yl)-6,7-dihydro-1H-imidazo[4,5-c]pyridin-5(4H)-yl)methanone] was > 5 µM.
Then `CC(C)(C)c1nnc(C(=O)N2CCc3[nH]cnc3[C@H]2c2cc3c(Cl)cccn3n2)o1` [Example 1047, (S)-(5-(tert-butyl)-1,3,4-oxadiazol-2-yl)(4-(4-chloropyrazolo[1,5-a]pyridin-2-yl)-6,7-dihydro-1H-imidazo[4,5-c]pyridin-5(4H)-yl)methanone], with < 0.5 µM.
The value for `Cc1ccn2nc([C@@H]3c4nc[nH]c4CCN3C(=O)c3nc(C(F)F)nn3C)cc2c1` [Example 1049, (S)-(3-(difluoromethyl)-1-methyl-1H-1,2,4-triazol-5-yl)(4-(5-methylpyrazolo[1,5-a]pyridin-2-yl)-6,7-dihydro-1H-imidazo[4,5-c]pyridin-5(4H)-yl)methanone] was 0.5 to 1 µM.
Consider `Cn1ncnc1C(=O)N1CCc2[nH]cnc2[C@@H]1c1cc2c(Cl)cccn2n1` [Example 1051, (R)-(4-(4-chloropyrazolo[1,5-a]pyridin-2-yl)-6,7-dihydro-1H-imidazo[4,5-c]pyridin-5(4H)-yl)(1-methyl-1H-1,2,4-triazol-5-yl)methanone], for which the AC50 was > 5 µM.
The value for `Cn1nc(C(F)(F)F)nc1C(=O)N1CCc2[nH]cnc2[C@H]1c1cc2c(Cl)cccn2n1` [Example 1052, (S)-(4-(4-chloropyrazolo[1,5-a]pyridin-2-yl)-6,7-dihydro-1H-imidazo[4,5-c]pyridin-5(4H)-yl)(1-methyl-3-(trifluoromethyl)-1H-1,2,4-triazol-5-yl)methanone] was < 0.5 µM; that for `Cn1nc(C(F)(F)F)nc1C(=O)N1CCc2[nH]cnc2[C@@H]1c1cc2c(Cl)cccn2n1` [Example 1053, (R)-(4-(4-chloropyrazolo[1,5-a]pyridin-2-yl)-6,7-dihydro-1H-imidazo[4,5-c]pyridin-5(4H)-yl)(1-methyl-3-(trifluoromethyl)-1H-1,2,4-triazol-5-yl)methanone] was 1 to 5 µM; that for `Cn1nc(Cl)nc1C(=O)N1CCc2[nH]cnc2[C@H]1c1cc2c(Cl)cccn2n1` [Example 1054, (S)-(3-chloro-1-methyl-1H-1,2,4-triazol-5-yl)(4-(4-chloropyrazolo[1,5-a]pyridin-2-yl)-6,7-dihydro-1H-imidazo[4,5-c]pyridin-5(4H)-yl)methanone] was < 0.5 µM.

Broadly, the AC50 is the midpoint of the concentration-response curve, whichever way the signal moves.

Source of the values: patent publication US20230365592A1 (Agios Pharmaceuticals, Inc., priority 2022, published 2023).
